One compound from US20240299359A1, “PHARMACEUTICAL COMPOSITION FOR ANIMALS CONTAINING 5-HYDROXY-METHYLIMIDAZOLIDINE-2,4-DIONE COMPOUND AS ACTIVE INGREDIENT” (KYONGBO PHARM. CO., LTD., priority 2021, published 2024) can be followed below.

As usually defined, the AUC(0-inf) is total exposure, with the tail of the curve extrapolated. Higher therefore signals more exposure. In general, AUC(0-t) refers to the area under the concentration-time curve up to a stated or last time point. The low end stands for less exposure, the high end for more exposure. Usually half-life stands for the time in which the quantity being followed falls by half. Higher therefore signals slow loss.

Like-named read-outs stand apart in the source and are kept apart here.

Data set [1] can be described thus: Pharmacokinetic analysis in beagles after oral administration. The note with it: for Cmax / AUC(0-inf) / AUC(0-t) / half-life / Tmax: beagle, dog, plasma, mean; for Cmax: po, read-out: Cmax (average highest plasma concentration); for Tmax: read-out: tmax (time of highest plasma concentration). It is filed as in vivo, beagle. The method, then: For this purpose, 5-hydroxy-1-methylimidazolidine-2,4-dione was weighed, based on the fasting weight measured on the day of administration, using an electronic scale in accordance with the oral doses of 10, 50, 100, and 200 mg/kg for each experimental group, and was added to a 500 ml glass container, DW (distilled water) was added as an excipient, and the drug was dissolved therein through vortexing and stirring. Then, the beagles used in the subsequent experiments were acclimatized and environmentally adapted for about a week before the test, and then the compound was orally administered to each beagle at the doses listed in the table below. In addition, the beagles used in this experiment were bred and kept at the Endik Institute.
The compound was administered orally, blood was collected in a volume of 3 ml using a syringe from the jugular vein of the experimental beagle at each time (0 (before administration), 0.25, 0.5, 1, 1.5, 2, 4, 8, 12, and 24 hours), the collected blood was centrifuged at 4,000 rpm/10 minutes at 4° C. and dispensed into 500 μl of a set of two separate 1.5 ml tubes, and the remaining plasma was dispensed into another set and immediately stored in a deep freezer at −70° C. until analysis. The concentration of 5-hydroxy-1-methylimidazolidine-2,4-dione in the collected plasma was measured using the following method.
First, a standard sample solution for preparing a calibration curve was prepared. 1.2 mg of standard 5-hydroxy-1-methylimidazolidine-2,4-dione was dissolved in 0.12 ml of DMSO to prepare a stock solution having a final concentration of 10 mg/ml. Then, the stock solution was diluted to a final concentration of 500, 1,000, 2,000, 5,000, 10,000, 30,000, 100,000, 300,000, and 1,000,000 ng/ml with 70% acetonitrile as a solvent. Then, for an internal standard sample solution, 5.0 mg of 4-methylumbelliferone was dissolved in acetonitrile to prepare a final stock solution of 5 mg/ml, which was then diluted with acetonitrile to obtain a final concentration of 200 ng/ml.
To prepare a calibration curve using each solution prepared above, standard 5-hydroxy-1-methylimidazolidine-2,4-dione was dissolved in DMSO to prepare a 10 mg/ml standard stock solution and then the standard stock solution was frozen at −20° C., and the prepared standard stock solution was diluted with 70% acetonitrile to prepare a working solution. The working solution was diluted with blank plasma stored frozen below −20° C. (working standard solution 10%, blank plasma 90%) to prepare standard plasma to adjust the concentration of analyte in plasma to […]. 20 μl of each standard plasma was placed in a 1.5 ml micro-tube and then 180 μl of internal standard solution (200 ng/ml in ACN) was added thereto. After vortexing for 5 minutes, centrifugation was performed at 4° C. and 17,600×g for 5 minutes. 150 μl of the supernatant was transferred to a 300 μl screw vial, 5 μl of the supernatant was injected into the HPLCMS/MS system, and a calibration curve was plotted at the ratio of the peak area of the analyte to the obtained peak area of the internal standard.
Then, the plasma sample collected from the beagle was subjected to the following pretreatment for assay. 180 μl of the internal standard solution was added to 20 μl of the plasma sample to induce protein precipitation. Then, the mixed sample was suspended using a vortex mixer for 5 minutes, centrifuged at 17,600×g for 5 minutes, and 150 μl of the supernatant was transferred to an analysis container. Then, 5 μl of the supernatant was injected into a HPLC/MS/MS system and analysis was performed. The instruments used for analysis were an HPLC system (Agilent 1100 Series with on-line degasser, binary pump, thermostatted well-plate autosampler and column compartment) and an MS/MS system (SCIEX 4000 QTRAP System). […]

The nature of data set [2]: 13-week repeated oral toxicity: feed intake. In kind it is in vivo, beagle. The note with it: repeated oral once a day for 13 weeks. The method, then: During the 13-week test period starting from the day before administration, feed intake was measured a total of 14 times before administration (pre) and every week on the weight measurement day for 13 weeks after the first administration. Approximately 200 g/day/head of solid feed was injected into a feed container at a predetermined time on the day before the weight measurement day and consumed freely. After 24 hours, the remaining feed was measured the next day.

The mark [3] stands for this setting: oral G3 (100 ng/kg [sic]; text 100 mg/kg).

On to `CN1C(=O)NC(=O)C1O` (stereo not drawn) [KBP-001, 5-hydroxy-1-methylimidazolidine-2,4-dione], for which the Cmax in data set [1] (10 mg/kg, oral 10 mg/kg (G1)) worked out at 15 µg/mL; in data set [1] (100 mg/kg, oral G3 (100 ng/kg [sic]; text 100 mg/kg)) it was 102 µg/mL; in data set [1] (200 mg/kg, oral 200 mg/kg (G4)), 233 µg/mL. The AUC(0-inf) in data set [1] (oral 10 mg/kg (G1)) came to 66.2 µg·h/mL; in data set [1] (oral 50 mg/kg (G2)), 289 µg·h/mL; in data set [1] (oral 200 mg/kg (G4)), 1120 µg·h/mL; in data set [1] (setting [3]) it was 468 µg·h/mL. For the same compound, the exposure AUC(0-t) came out at 65.4 µg·h/mL in data set [1] (oral 10 mg/kg (G1)), 288 µg·h/mL in data set [1] (oral 50 mg/kg (G2)), 1110 µg·h/mL in data set [1] (oral 200 mg/kg (G4)) and 466 µg·h/mL in data set [1] (setting [3]). The half-life in data set [1] (oral 10 mg/kg (G1)) was 2.89 h; in data set [1] (oral 50 mg/kg (G2)) it was 2.8 h; in data set [1] (oral 200 mg/kg (G4)), 2.9 h; in data set [1] (setting [3]) it was 2.97 h. In addition, the Tmax came to 0.6 h in data set [1] (oral 10 mg/kg (G1)), 0.35 h in data set [1] (oral 50 mg/kg (G2)), 0.45 h in data set [1] (oral 200 mg/kg (G4)) and 0.8 h in data set [1] (setting [3]). Besides, the adverse reactions entry in data set [1] (single oral 10, 50, 100, 200 mg/kg, until end of PK test) was “no adverse reactions were observed”. Moreover, the feed intake result in data set [2] is “no significant difference in feed intake between respective groups”.
